From patent publication US20080003632A1, “Method for the In Vitro Determination of Cellular Uptake of Exogenous and Endogenous Substances Using Nmr Shift Agents and the Magic Angle Nmr Technique” (Bracco Imaging SpA, priority 2004, published 2008)

System: HRBC (Human Red Blood Cells)
Test: Cellular uptake of acetylsalicylic acid in red blood cells by 1H HR-MAS NMR with shift agent Dy-BOPTA
Format: in vitro ADME
From the text: Determination of Cellular Uptake of Acetylsalicylic Acid in Red Blood Cells
In this example, EXO=Acetylsalicylic acid; SA=Dy-BOPTA (Dy is the symbol of Dysprosium, one of the lanthanides known as shift agent).
The nucleus used to determine Acetylsalicylic acid cellular uptake is the proton.
The in vitro determination has been preformed on HRBC obtained by human blood treated as described below.
Centrifugation: the employed centrifuge was HERAEUS SEPATECH OMNIFUGE 2 ORS, rotor model 3360. Centrifugation was done at 2109 g (equivalent to 3500 rpm) at 4° C. for 15 minutes.
Living HRBC preparation: human blood (to which sodium citrate has been added as an anticoagulant) was centrifuged. After that, HRBC pellets were separated from serum and white cell interface, carefully obtaining a solution of red cells free of white cells; accordingly, red cells with 80% hematocrit were obtained.
Dy-BOPTA stock solution: a 0.1 M stock solution of Dy-BOPTA was used in all of the measurement to obtain the suitable [SA].
Acetylsalicylic acid stock solution: a 1 M stock solution of ASA containing 0.1 M of DSS (as internal standard for quantitative determination), was used in all of the measurements.
The solution was prepared by dissolving 180.16 mg of ASA and 23.63 mg of DSS in 200 ul of H2O, adding NaOH 2N until dissolution, lowering, if necessary, the pH to 7 with HCl 1N, then filling the volume to 1 ml. In this way two forms of ASA are generated that are below indicated as A and B.
Acetylsalicylic acid in HRBC: a sample containing 1 ml of HRBC (80% hematocrit), 100 μmoles of acetylsalicylic acid (i.e. 100 μl of acetylsalicylic acid stock solution) and 8 μmoles of Dy-BOPTA (i.e. 80 μl of Dy-BOPTA stock solution) was employed to measure the uptake of acetylsalicylic acid in HRBC.
Proton ^1H NMR spectra: all the ^1H NMR spectra have been acquired on a Bruker AMX 600 SB spectrometer at the frequency of 600.13 MHz. A multinuclear HR-MAS probehead with double bearing and 4 mm rotor with 12 μl spherical insert have been employed. Experimental conditions were: sample rotating speed=3500 Hz; spectra width=12,000 Hz (c.a. 20 ppm); time domain data points=128 K; number of scans=16; pulse length=11.7 μs; recycle delay=10 s; CPMG sequence; Fourier Transform by 0.5 Hz of enhancement multiplication function, sample temperature=25° C.
Proton spectra have been employed to determine acetylsalicylic acid cellular uptake, because ^1H is the sole nucleus present in acetylsalicylic acid having a high NMR sensitivity. […] Both of the two signals are marker^EXO signals.
The measurement of cellular uptake of acetylsalicylic acid by HRBC was calculated from the spectra reported in the enclosed FIG. 7.
Firstly, the ^1H NMR-MAS spectrum of HRBC was acquired (FIG. 7—trace a) in the absence of either acetylsalicylic acid (EXO) or of Dy-BOPTA (SA).
Then, 100 μl of acetylsalicylic acid 1M stock solution were added and the spectrum repeated (FIG. 7—trace b). In spectrum of trace b the two components for each signal A and B of the methyl group of acetylsalicylic acid were well visible, i.e. four peaks exist in the proton MAS-NMR spectrum. The splitting of signals A and B induces to suppose that the molecules of acetylsalicylic acid in the extra- and intra-cellular compartments are in magnetically different environments, i.e. the four observed signals corresponded to signals A e B into intra- and extra-cellular compartments, respectively.
Lastly, 80 μl of Dy-BOPTA stock solution were also added to the sample and the spectrum were again re-acquired (FIG. 7—trace c). […] Two components resulted unshifted with respect to the original marker^EXO signals while the other two components were shifted.
Acetylsalicylic acid corresponding to the unshifted marker^EXO signals is ACETYLSALICYLIC ACIDCC≠SA, i.e. acetylsalicylic acid in the intra-cellular compartment. […]

% of cellular uptake of acetylsalicylic acid A (form A, HRBC): 3.04% | concentration of acetylsalicylic acid o (A) (form A, extracellular fluid volume 0.38 ml): 154100 µM | μmoles acetylsalicylic acid o (A), amount in extra-cellular compartment (form A, extracellular, 1 ml HRBC 80% hematocrit, 100 μmoles ASA added, 8 μmoles Dy-BOPTA, 25° C.): 58.56 µmol | concentration of acetylsalicylic acid i (A) (form A, intracellular fluid volume 0.8 ml): 4830 µM | μmoles acetylsalicylic acid i (A), amount in intra-cellular compartment (form A, intracellular, 1 ml HRBC 80% hematocrit, 100 μmoles ASA added, 8 μmoles Dy-BOPTA, 25° C.): 3.87 µmol | [acetylsalicylic acid]o/[acetylsalicylic acid]i (A) (form A, ratio of extra- to intra-cellular concentration): 31.90 | % of cellular uptake of acetylsalicylic acid B (form B, HRBC): 10.40% | concentration of acetylsalicylic acid o (B) (form B, extracellular fluid volume 0.38 ml): 79440 µM | μmoles acetylsalicylic acid o (B), amount in extra-cellular compartment (form B, extracellular, 1 ml HRBC 80% hematocrit, 100 μmoles ASA added, 8 μmoles Dy-BOPTA, 25° C.): 30.19 µmol | concentration of acetylsalicylic acid i (B) (form B, intracellular fluid volume 0.8 ml): 9220 µM | μmoles acetylsalicylic acid i (B), amount in intra-cellular compartment (form B, intracellular, 1 ml HRBC 80% hematocrit, 100 μmoles ASA added, 8 μmoles Dy-BOPTA, 25° C.): 7.38 µmol | [acetylsalicylic acid]o/[acetylsalicylic acid]i (B) (form B, ratio 79.44/9.22 of extra- to intra-cellular concentration): 8.61 | % of cellular uptake of total acetylsalicylic acid (forms A + B, HRBC): 5.67%
SMILES: CC(=O)Oc1ccccc1C(=O)O [acetylsalicylic acid]
